Data taken from patent US20130274233A1, “MODULATORS OF HEDGEHOG SIGNALING PATHWAY” (priority 2012, published 2013).

How the values were obtained:
[1] = target: T1, SmoM2::GFP (Homo sapiens, UniProt Q99835, W535L); assay: Ciliary localization of SmoM2::GFP (3T3/SmoM2::GFP Overexpression/Ivs::tagRFPT); format: cell-based; conditions: SmoM2::EGFP overexpressing cells
T1 construct: expressed in transfected cells
Description: (§1) NIH/3T3 cells were maintained in DMEM containing 10% (v/v) calf serum, penicillin, streptomycin, and L-glutamine. HEK293, L, cos 7, and suFU−/− mouse embryonic fibroblast cells were maintained in DMEM containing 10% (v/v) fetal bovine serum, penicillin, streptomycin, and L-glutamine. Smo::EGFP, SmoM2::GFP, and Ivs::tagRFPT were cloned into pBabe to generate retroviral particles for infection. Smo::EGFP/Ivs::tagRFPT and SmoM2::GFP/Ivs::tagRFPT stable cell lines were generated through viral infection of NIH/3T3^12. A ShhLightII Gli reporter cell line was obtained from the American Type Culture Collection (ATCC) and used in luciferase reporter assays to measure Hh pathway activity. The cell line contains a stably integrated Gli-responsive Firefly luciferase reporter and a constitutive Renilla luciferase expression construct^33. Subclones expressing Smo or SmoM2 in ShhLightII cells were used for chemical epistasis analyses.
(§2) Cells were cultured and treated in 384-well imaging plate precoated with poly-D-Lysine (Greiner Bio-one), fixed with 4% paraformaldehyde (Electron Microscopy Sciences), and stained with Hoechst (Invitrogen). Images were collected using Opera High Content Screening System (Perkin Elmer). Activityl)ase (IDBS Inc, Emeryvill, Calif.) and Pipeline Pilot (Accelrys, Inc. San Diego, Calif.) were used for high content screening data management and analysis. Acapella 2.0 software (Evotec Technologies/PerkinElmer) was used to perform multi-parametrical high content image quantification. All the images for comparison were scanned with identical microscopic settings and analyzed with the same input parameters.
(§3) Acapella 2.0 software (Evotec Technologies/PerkinElmer) was used to perform multi-parametric high content image quantification. Our image analysis script used Ivs::tagREPT to first determine the location of the PC and then Smo::EGFP to quantify the level of Smo present in the cilium.

[2] = test system: Hh pathway activity; assay: Priming and withdrawal of compound followed by Shh stimulation, Gli-luciferase reporter (hypersensitivity); format: cell-based; conditions: priming 24 hours, washout, then Shh (or SAG) stimulation
Protocol: (§4) Hh activity assays were performed using ShhLightll cells, Smo/Lightll cells, SmoM2/Lightll cells, and suFU−/− mouse embryonic fibroblasts. In the suFU−/− cells, Hh activity was measured after co-transfection with Gli driven firefly luciferase and TK-renilla luciferase reporters^41. Wnt activity was measured in 293 cells co-transfected with Top-flash and TK-renilla luciferase reporters^42. Cells were cultured and treated in 96 well assay plates (Corning) and incubated with Duo-Glo luciferase substrates (Promega) to measure firefly and renilla luciferase activity sequentially using a Top Count NX Microplate Scintillation and Luminescence Counter (Perkin Elmer). The renilla luciferase signal was used to normalize the firefly reporter activity.
Following the removal of drug containing medium, and extensive washing, cells were stimulated with either Hh ligand, or the direct-binding Smo agonist SAG^17,18.
(§5) ShhLightII cells and SmoM2/LightII cells were cultured and treated in 96 well assay plates (Corning) and incubated with Duo-Glo luciferase substrates (Promega) to sequentially measure firefly and renilla luciferase activity. Smo, or GFP, expression plasmids were co-transfected into 3T3 cells together with a Gli-responsive firefly reporter and a TK-renilla luciferase reporter contruct to monitor effects of Smo overexpression. Co-transfection of the two reporter constructs was conducted in assays measuring Hh pathway activity in suFU−/− cells. Wnt activity was measured following co-transfection of a Top-flash and renilla luciferase reporter. In both Hh and Wnt activity assays, renilla luciferase reporter activity, or mass of protein, was used to normalize expression values. Luciferase signal was read by TopCount NX Microplate Scintillation and Luminescence Counter (Perkin Elmer). Quantitative PCR probes for Ptch1, Gli1, and β-actin were purchased from Applied Biosystems. Reactions and measurements were performed using on an Applied Biosystems 7900HT at Harvard FAS Center of System Biology. β-actin was used to normalize Ptch1 and Gil1 values.

[3] = test system: SmoM2; assay: Gli-luciferase reporter induced by SmoM2::GFP overexpression (SmoM2/LightII cells); format: cell-based; conditions: SmoM2 versus wild-type Smo
Description: as §1, §4, §5

[4] = test system: Hh pathway activity; assay: Gli-luciferase reporter assay, Shh-induced Hh pathway activity (ShhLightII cells); format: cell-based; conditions: Gli-luciferase induction and Smo ciliary localization; 10 μM FA
Description: as §1, §4, §5

[5] = target: T2, Smo::EGFP (Homo sapiens, UniProt Q99835); assay: FA promoted accumulation of Smo in the PC, inhibition by Smo antagonists; format: cell-based; conditions: FA-induced
T2 construct: expressed in transfected cells
Protocol: Cells were cultured and treated in 384-well imaging plate precoated with poly-D-Lysine (Greiner Bio-one), fixed with 4% paraformaldehyde (Electron Microscopy Sciences), and stained with Hoechst (Invitrogen). Images were collected using Opera High Content Screening System (Perkin Elmer). ActivityBase (IDBS), Pipeline Pilot (Accelrys), Excel (Microsoft), and Prism (GraphPad) were used for high content screening data management and analysis. Acapella 2.0 software (Evotec Technologies/PerkinElmer) was used to perform multi-parametric image quantification. All the comparative images were scanned with identical microscopic setting and analyzed with the same input parameters.

[6] = target: T2, Smo::EGFP; assay: Cyc-induced Smo ciliary accumulation (Smo::EGFP/Ivs::tagRFPT cells); format: cell-based; conditions: 5 μM Cyc
Protocol: as §2, §3

[7] = test system: Hh pathway activation induced by loss of suFU; assay: Gli-luciferase assay in suFU−/− mouse embryonic fibroblasts; format: cell-based; conditions: suFU−/− cells
Protocol: as §4
ShhLightII cells and SmoM2/LightII cells were cultured and treated in 96 well assay plates (Corning) and incubated with Duo-Glo luciferase substrates (Promega) to sequentially measure firefly and renilla luciferase activity. […] Wnt activity was measured following co-transfection of a Top-flash and renilla luciferase reporter. […] Luciferase signal was read by TopCount NX Microplate Scintillation and Luminescence Counter (Perkin Elmer). Quantitative PCR probes for Ptch1, Gli1, and β-actin were purchased from Applied Biosystems. […]

[8] = target: T2, Smo::EGFP; assay: High content assay of Shh-induced Smo::EGFP accumulation in the primary cilium (Smo::EGFP/Ivs::tagRFPT NIH/3T3 cells); format: cell-based; conditions: in the presence of Shh
Description: as §1, §2, §3
The inventors used the spot-finding algorithm in the RFP channel to find Ivs-rich spots. Each non-overlapping spot was based on a maximum 8 pixel-radius (when using a 40× objective) around a central intensity peak of 5 pixels. A distance of at least 10 pixels was required between adjacent spot centers. Spot peaks had to exceed thresholds of relative intensity compared to the remaining body of the spot as well as to the entire image. The average, maximum and total RFP intensity of each spot were measured. The spots with sufficiently high absolute maxima to pass the selected threshold were classified as positive spots. To form candidate cilia, the inventors selected the brightest 15% of the pixels in each positive spot and merged those pixels into objects so that the brightest parts of adjacent spots could form single, larger cilia-shaped objects. To qualify the candidate cilia as true Ivs-positive cilia, the width of the objects created from merging the brightest pixels in each spot had to be at least 2 pixels and the length to half-width ratio had to exceed 3. (i.e. a 3-pixel long by 2-pixel wide cilium was the minimum accepted cilium size and the length had to be at least 1.5 fold of the width). The mean GFP intensity within these Ivs-positive cilia was used to estimate the ciliary level of Smo protein. The inventors subtracted the background of the mean GFP intensity in the 3-pixel wide area around each candidate cilium to avoid some false positives. Those Ivs-positive cilia that exceed the final mean GFP intensity threshold set for each experiment were deemed Smo-positive cilia.
Hoechst staining was used to determine the total number of nuclei per well.
Measurements of the geometry of the cilia as well as the total fluorescent intensities of each cilium in the Smo- and Ivs-channels were used to determine if any of the compounds were having unusual effects on cilia size, intensity or frequency of observation or combinations of all three characteristics.

[9] = test system: Smo; assay: Bodipy-cyclopamine competition assay in Cos 7 cells expressing Smo; format: binding; conditions: cells over-expressing Smo, 5 nM Bodipy-cyclopamine
Protocol: Cos 7 cells were transfected with a plasmid co-expressing Smo and a nuclear localized form of tagRFPT (pCIT-Smo). An empty parental construct (pCIT), and a construct that co-expresses SmoM2, were used as controls to assess specificity and background noise. Three days after transfection, cells were incubated with 5 nM Bodipy-cyclopamine, with or without other compounds for 1 hour at 37 °C. Cells were washed, fixed and stained with Hoechst. Images were collected by an Opera High Content Screen System. Bodipy fluorescence was quantified specifically for transfected cells (determined by red tagRFPT+ nucleus) using a program developed by the authors with Acapella 2.0 software. All of the images were scanned with identical microscopic settings and analyzed with the same input parameters.
Cos 7 cells were transfected with a plasmid that co-expresses Smo and a nuclear localized tagRFPT marker (pCIT-Smo). The empty parental construct (pCIT) and a construct that co-express SmoM2 were used as controls to assess specificity and background signal. Three days after transfection, cells were incubated with 5 nM Bodipy-cyclopamine, with or without additional compounds, for 1 hour at 37° C. Cells were then fixed and stained with Hoechst. Images were collected with the Opera High Content Screen System. Fluorescence values were assessed in transfected cells (red nuclei) with a program developed by the authors using Acapella 2.0 software. All of images were scanned with identical microscopic setting and analyzed with the same input parameters.

[10] = test system: Hh pathway activity; assay: Gli-luciferase reporter assay, Hh pathway activation by compound alone (NIH/3T3 cells); format: cell-based; conditions: FA at high concentrations
Protocol: as §5

[11] = human cancer patients, after a single high dose; cited from earlier work

T2 sequence (Q99835 28-787): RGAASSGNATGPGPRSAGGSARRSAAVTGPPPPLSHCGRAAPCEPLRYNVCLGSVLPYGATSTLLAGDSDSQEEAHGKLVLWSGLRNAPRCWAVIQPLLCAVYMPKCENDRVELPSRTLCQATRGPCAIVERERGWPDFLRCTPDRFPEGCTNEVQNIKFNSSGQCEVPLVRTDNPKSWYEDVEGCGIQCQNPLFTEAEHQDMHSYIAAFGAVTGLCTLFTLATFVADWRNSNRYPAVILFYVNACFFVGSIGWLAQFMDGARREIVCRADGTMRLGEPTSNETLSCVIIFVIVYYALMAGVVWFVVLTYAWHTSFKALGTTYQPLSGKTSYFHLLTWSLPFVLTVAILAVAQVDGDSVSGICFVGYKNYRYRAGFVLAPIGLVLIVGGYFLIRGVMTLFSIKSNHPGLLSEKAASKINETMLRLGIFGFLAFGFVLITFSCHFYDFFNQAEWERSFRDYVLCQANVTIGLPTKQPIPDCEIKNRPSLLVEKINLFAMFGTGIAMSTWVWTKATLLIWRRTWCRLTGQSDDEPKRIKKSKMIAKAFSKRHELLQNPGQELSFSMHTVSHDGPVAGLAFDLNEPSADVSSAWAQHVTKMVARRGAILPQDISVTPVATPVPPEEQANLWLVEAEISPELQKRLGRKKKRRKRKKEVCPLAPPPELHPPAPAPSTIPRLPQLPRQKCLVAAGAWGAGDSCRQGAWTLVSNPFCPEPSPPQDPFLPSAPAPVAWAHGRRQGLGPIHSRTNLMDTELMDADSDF
T1 sequence (Q99835 28-787 W535L): as the sequence (Q99835 28-787) above, with W508L counted along it

Row | SMILES | effect on SmoM2 ciliary localization [1] | hypersensitivity to Hh pathway stimulation after priming with and removal of compound, Gli-luciferase [2] | IC50's for SmoM2 relative to IC50's for wildtype Smo [3] | Hh pathway inhibition by the antagonist in the presence of FA [4] | effect on FA promoted accumulation of Smo in the PC [5] | effect on Cyc induced Smo cilial accumulation [6] | effect on Hh pathway activation induced by loss of suFU [7] | inhibition of Shh-induced Smo::EGFP accumulation in the PC [8] | competition of Bodipy-Cyc binding to Smo [9] | effect on FA induced activation of the Hh pathway [10] | peak plasma concentration [11] [µM]
1 | CS(=O)(=O)c1ccc(C(=O)Nc2ccc(Cl)c(-c3ccccn3)c2)c(Cl)c1 [GDC0449] | did not alter SmoM2 ciliary accumulation | no enhancing activity | at least an order of magnitude higher | dramatically reduced | inhibit | effectively compete with Cyc | does not alter | specifically inhibited Smo::EGFP accumulation in the PC |  |  | 
2 | Cc1nn(-c2ccccc2)c(C)c1/C=N/N1CCN(Cc2ccccc2)CC1 [SANT-1] | did not alter SmoM2 ciliary accumulation |  | at least an order of magnitude higher | dramatically reduced | inhibit | effectively compete with Cyc |  | specifically inhibited Smo::EGFP accumulation in the PC | effective competitor | blocked | 
3 | C[C@@H]1C[C@H]2[C@@H]3CCC4=CC(=O)C=C[C@]4(C)[C@@]3(F)[C@@H](O)C[C@]2(C)[C@@]1(O)C(=O)CO [Dexamethasone] |  |  |  |  |  |  |  |  |  |  | > 10
